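Dose response: 5 concentrations. Exposure: 48 h. Format: 96-well plates. Endpoint: linear interpolation; highest concentration if not reached. The concentration for 50% growth inhibition is given as GI50.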 Calls of active or inactive are those of the source. No stated cut-off is given here; in the data, active = GI50 up to about 1.1 µM and inactive = higher. Some results are limits rather than exact numbers.

Holding throughout (test): NCI tumour cell line growth inhibition, 48 h
Test [1] deals with EKVX.
The test system of test [2] is HCT-15.
Test [3] relates to HOP-62.
For test [4], the system named is HOP-92.
In test [5] the test system is K562.
Test [6] concerns KM-20L2.
The subject of test [7] is MOLT-4.
Test [8] concerns RXF 393.
Test [9] concerns SF-268.
For test [10], the system named is SK-MEL-28.
Test [11] deals with SK-MEL-5.
For test [12], the system named is SN12C.
The subject of test [13] is UACC-62.
Test [14] relates to UO-31.
In test [15] the test system is NCI-H226.
Test [16] relates to A498.
Test [17] concerns BT-549.
Test [18] deals with MCF7.
Test [19] deals with MDA-MB-435.
In test [20] the test system is MDA-N.

Consider `CC(C)(C)CC(C)(C)c1cc2c(O)c(c1)Cc1cc(C(C)(C)CC(C)(C)C)cc(c1O)Cc1cc(C(C)(C)CC(C)(C)C)cc(c1O)Cc1cc(C(C)(C)CC(C)(C)C)cc(c1O)C2`, for which the GI50 in test [1] is > 100 µM (inactive); in [2] it was greater than 100 µM; in test [3], > 100 µM (inactive); in test [4], > 100 µM (inactive); in test [5], > 100 µM (inactive); in test [6], > 100 µM (inactive). The GI50 in test [7], in test [8], in [9], in test [10], in [11] and in test [12] was > 100 µM (inactive) throughout. Moreover, the GI50 in test [13] and in test [14] was > 100 µM (inactive) each time.
In the case of `CN(C)CCS/C(=N\c1ccccc1)N1CCCCC1`, the GI50 in test [2] is 16.4 µM; in test [3] it was > 100 µM (inactive); in test [4], 13.7 µM (inactive); in [5], 28.4 µM (inactive); in test [6] it was 17.2 µM (inactive); in test [7], 19 µM (inactive). In addition, the GI50 in test [15] was 7.41 µM (inactive); in test [8], 18.2 µM (inactive); in [9], 18.4 µM (inactive); in [10] it was 14.8 µM (inactive); in test [11] it was 16.1 µM (inactive); in test [12], 17.7 µM (inactive). The GI50 in test [13] was 16 µM (inactive); in [14] it was 20.3 µM (inactive).
For `CC1=C2C(=O)OCC23C=COC3(C)O1` (configuration not stated), the GI50 in test [16] is 43.3 µM (inactive); in [17], 44.4 µM (inactive); in test [1] it was 35.7 µM (inactive); in test [2] it was 26.2 µM; in [3], 34.2 µM (inactive); in test [4], 45 µM (inactive). Further, the GI50 in test [5] is 31.8 µM (inactive); in test [18] it was 36.2 µM (inactive); in [19], 20.7 µM (inactive); in test [20], 29 µM (inactive); in [7] it was 21.4 µM (inactive); in test [15], 28.4 µM (inactive). In addition, the GI50 in [8] is 31.4 µM (inactive); in test [9], 60.7 µM (inactive); in test [10], 20.4 µM (inactive); in test [11] it was 18 µM (inactive); in [12], 37.7 µM (inactive); in [13] it was 19.4 µM (inactive). For the same compound, the GI50 in [14] was 30.8 µM (inactive).
As for `C[C@H](CCC1=NCCN1)[C@H]1CC[C@H]2[C@@H]3CC[C@@H]4C[C@H](O)CC[C@]4(C)[C@H]3C[C@H](O)[C@]12C`, the GI50 in test [16] is 20.8 µM (inactive); in [17] it was 18.2 µM (inactive); in test [1], 18.5 µM (inactive); in [2], 53.1 µM; in [3] it was 15.5 µM (inactive); in test [4], 12.2 µM (inactive). In addition, the GI50 in test [5] was 5.38 µM (inactive); in test [18], 12.7 µM (inactive); in [19], 14.5 µM (inactive); in test [20], 14.6 µM (inactive); in [7], 3.13 µM (inactive); in [15], 14.3 µM (inactive). For the same compound, the GI50 in test [8] was 18 µM (inactive); in test [9] it was 7.36 µM (inactive); in test [10], 18.6 µM (inactive); in test [11] it was 11.8 µM (inactive); in test [12], 16.9 µM (inactive); in test [13], 13.5 µM (inactive). In addition, in test [14], the GI50 is 18.6 µM (inactive).
`COc1ccc(C(=O)C(c2ccc(OC)cc2)C2(O)C(=O)Nc3ccccc32)cc1` (configuration not stated): the GI50 in test [1] was > 100 µM (inactive); in test [2] it was greater than 100 µM; in [4], > 100 µM (inactive); in test [5] it was > 100 µM (inactive); in [6], > 100 µM (inactive); in test [7], > 100 µM (inactive). Moreover, the GI50 in test [15], in test [9], in test [10], in test [12], in [13] and in test [14] was > 100 µM (inactive) in each case.
Turning to `CCCCCc1cc2cc3c(c(O)c2c(=O)[nH]1)C1(CCC3)C(=O)c2c(O)c3c(c(O)c2C1=O)C(=O)C(OC)=CC3=O` (configuration not stated), the GI50 is 2.18 µM (inactive) in test [16]; 0.703 µM (active) in [17]; 0.361 µM (active) in [1]; 0.42 µM in test [2]; 3.33 µM (inactive) in [3]; 0.433 µM (active) in test [4]. Further, the GI50 is 0.42 µM (active) in test [5]; 0.317 µM (active) in test [18]; 0.908 µM (active) in [19]; 1.41 µM (inactive) in test [20]; 0.582 µM (active) in test [7]; 1.87 µM (inactive) in test [15]. In addition, the GI50 in [8] is 0.673 µM (active); in test [9], 0.807 µM (active); in [10], 1.29 µM (inactive); in test [11], 0.515 µM (active); in [12], 1.01 µM (active); in test [13], 0.916 µM (active). Also, in test [14], the GI50 is 0.579 µM (active).
For `O=C1c2cc3c(cc2CC12Cc1cc4c(cc1C2=O)CCCC4)CCCC3`, the GI50 in [16] is > 100 µM (inactive); in test [17], 56.4 µM (inactive); in test [1], > 100 µM (inactive); in [2], greater than 100 µM; in test [3] it was 24.2 µM (inactive); in test [4] it was 18.9 µM (inactive). Moreover, the GI50 is 78.5 µM (inactive) in test [5]; > 100 µM (inactive) in test [18]; > 100 µM (inactive) in [19]; > 100 µM (inactive) in test [20]; > 100 µM (inactive) in [7]; > 100 µM (inactive) in test [15]. Besides, the GI50 in test [8] was 16.4 µM (inactive); in test [9], 29.3 µM (inactive); in test [10] it was > 100 µM (inactive); in test [11], 46.5 µM (inactive); in [12] it was 56.2 µM (inactive); in test [13], 58.2 µM (inactive). Moreover, the GI50 in test [14] is > 100 µM (inactive).
Consider `CCc1nc(N)c2nc(-c3cccs3)oc2n1`, for which the GI50 in test [16] was > 10 µM (inactive); in test [17], > 100 µM (inactive); in [1], 50.1 µM (inactive); in test [2], 86.9 µM; in [3], > 100 µM (inactive); in [4], > 100 µM (inactive). In addition, the GI50 in test [5], in [18], in test [19], in [20], in test [7] and in test [15] was > 100 µM (inactive) throughout. The GI50 in test [8], in [9], in test [10], in test [11], in test [12] and in [13] was > 100 µM (inactive) throughout. The GI50 in test [14] was 65.6 µM (inactive).
In the case of `O=C1Nc2ccccc2/C1=C\c1c(Cl)n(-c2ccccc2)c2ccccc12`, the GI50 was 6.7 µM (inactive) in test [16]; 5.93 µM (inactive) in test [17]; 2.33 µM (inactive) in test [1]; 2.49 µM in test [2]; 4.68 µM (inactive) in [3]; 0.946 µM (active) in test [4]. In addition, the GI50 in test [5] is 2.48 µM (inactive); in [18] it was 3.44 µM (inactive); in test [19] it was 0.759 µM (active); in test [20], 1.14 µM (inactive); in test [7], 4.82 µM (inactive); in [15], 1.7 µM (inactive). Moreover, the GI50 in [8] was 2.14 µM (inactive); in test [9], 0.832 µM (active); in test [10], 12 µM (inactive); in [11], 2.66 µM (inactive); in test [12], 3.61 µM (inactive); in test [13] it was 8.07 µM (inactive). Also, the GI50 in test [14] was 2.4 µM (inactive).
As for `COc1c(-c2nc3ccc(N4CCN(C)CC4)cc3[nH]2)cc(OC)c2[nH]c(COC(C)=O)nc12`, the GI50 in test [16] is > 100 µM (inactive); in test [17], > 100 µM (inactive); in [1] it was 98.4 µM (inactive); in [2], greater than 100 µM; in [3] it was 67.1 µM (inactive); in [4], > 100 µM (inactive). Besides, the GI50 was 56.6 µM (inactive) in test [5]; 38.7 µM (inactive) in test [18]; 37.8 µM (inactive) in test [19]; 40.4 µM (inactive) in test [20]; 45 µM (inactive) in test [7]; > 100 µM (inactive) in test [15]. Also, the GI50 is 11.8 µM (inactive) in [8]; 94.8 µM (inactive) in test [9]; > 100 µM (inactive) in test [10]; 94.6 µM (inactive) in [11]; 41.4 µM (inactive) in [12]; > 100 µM (inactive) in test [13]. Further, in test [14], the GI50 is 42.3 µM (inactive).
On to `OC(c1ccc(-c2ccccc2)cc1)C(F)(F)c1nc2ccccc2o1` (configuration not stated), for which the GI50 is 9.12 µM (inactive) in test [16]; > 96.4 µM (inactive) in [17]; > 73.3 µM (inactive) in [1]; greater than 100 µM in test [2]; 30.7 µM (inactive) in test [3]; 29.9 µM (inactive) in [4]. Also, the GI50 in [5] is 18.2 µM (inactive); in test [18], 25.3 µM (inactive); in test [19], > 86.9 µM (inactive); in test [20] it was > 100 µM (inactive); in [7], 28.5 µM (inactive); in test [15], > 48.3 µM (inactive). Also, the GI50 in test [8] is 16.4 µM (inactive); in test [9], 54.5 µM (inactive); in [10] it was > 100 µM (inactive); in [11] it was 65.3 µM (inactive); in [12] it was 50.5 µM (inactive); in test [13] it was > 78 µM (inactive). In addition, in [14], the GI50 is 55 µM (inactive).

(Values after ChEMBL document CHEMBL1201862, “PubChem BioAssay data set” (2004).)
